# Measurements published in the supplement of paper PMC10307832.
# Legend:
# Assay in all cases: relative viability (nuclei count vs DMSO), 5 days (fraction); higher = more cells survive
# BX 795 = compound: O=C(NCCCNc1nc(Nc2cccc(NC(=O)N3CCCC3)c2)ncc1I)c1cccs1 [BX 795]
# Procedure, shortened: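 A plate was accepted only when its control CV was below 25% and the cells had doubled at least once. Viability is defined from nuclear counts as treated wells divided by vehicle wells, with the median taken across plates. That median covers lung cancer cell lines grown in 1536-well plates, dosed by pinning at five √10-spaced library-drug concentrations, and counted in MetaXpress from 4× Hoechst images after 5 days.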
# BX 795 + Bortezomib = compound: O=C(NCCCNc1nc(Nc2cccc(NC(=O)N3CCCC3)c2)ncc1I)c1cccs1 [BX 795] + CC(C)C[C@H](NC(=O)[C@H](Cc1ccccc1)NC(=O)c1cnccn1)B(O)O [Bortezomib] (partner 0.002 µM)
# Procedure, shortened: (§1)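 The day after seeding in 1536-well plates, lung cancer cell lines were treated by pin tool with a single drug, or with a fixed anchor-drug dose together with five library-drug doses (not always all listed) in √10 steps. After 5 days, a combined fix-and-stain solution (final 0.05% Triton X-100, 1% formaldehyde, 1 ug/ml Hoechst) was added. Nuclei counted on 4× images gave relative viability as treated counts over vehicle counts, reported as the median of duplicate plates.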
# BX 795 + Navitoclax = compound: O=C(NCCCNc1nc(Nc2cccc(NC(=O)N3CCCC3)c2)ncc1I)c1cccs1 [BX 795] + CC1(C)CCC(c2ccc(Cl)cc2)=C(CN2CCN(c3ccc(C(=O)NS(=O)(=O)c4ccc(N[C@H](CCN5CCOCC5)CSc5ccccc5)c(S(=O)(=O)C(F)(F)F)c4)cc3)CC2)C1 [Navitoclax] (partner 0.5 µM)
# Procedure, shortened: as §1
# BX 795 + Foretinib = compound: O=C(NCCCNc1nc(Nc2cccc(NC(=O)N3CCCC3)c2)ncc1I)c1cccs1 [BX 795] + COc1cc2c(Oc3ccc(NC(=O)C4(C(=O)Nc5ccc(F)cc5)CC4)cc3F)ccnc2cc1OCCCN1CCOCC1 [Foretinib] (partner 0.25 µM)
# Procedure, shortened: as §1
# BX 795 + Lapatinib = compound: O=C(NCCCNc1nc(Nc2cccc(NC(=O)N3CCCC3)c2)ncc1I)c1cccs1 [BX 795] + CS(=O)(=O)CCNCc1ccc(-c2ccc3ncnc(Nc4ccc(OCc5cccc(F)c5)c(Cl)c4)c3c2)o1 [Lapatinib] (partner 2 µM)
# Procedure, shortened: as §1
# BX 795 + Pictilisib = compound: O=C(NCCCNc1nc(Nc2cccc(NC(=O)N3CCCC3)c2)ncc1I)c1cccs1 [BX 795] + CS(=O)(=O)N1CCN(Cc2cc3nc(-c4cccc5[nH]ncc45)nc(N4CCOCC4)c3s2)CC1 [Pictilisib] (partner 1 µM)
# Procedure, shortened: as §1
# BX 795 + Crizotinib = compound: O=C(NCCCNc1nc(Nc2cccc(NC(=O)N3CCCC3)c2)ncc1I)c1cccs1 [BX 795] + C[C@@H](Oc1cc(-c2cnn(C3CCNCC3)c2)cnc1N)c1c(Cl)ccc(F)c1Cl [Crizotinib] (partner 1 µM)
# Procedure, shortened: as §1
# BX 795 + Linsitinib = compound: O=C(NCCCNc1nc(Nc2cccc(NC(=O)N3CCCC3)c2)ncc1I)c1cccs1 [BX 795] + C[C@]1(O)C[C@@H](c2nc(-c3ccc4ccc(-c5ccccc5)nc4c3)c3c(N)nccn32)C1 [Linsitinib] (partner 1 µM)
# Procedure, shortened: as §1
# BX 795 + Alpelisib = compound: O=C(NCCCNc1nc(Nc2cccc(NC(=O)N3CCCC3)c2)ncc1I)c1cccs1 [BX 795] + Cc1nc(NC(=O)N2CCC[C@H]2C(N)=O)sc1-c1ccnc(C(C)(C)C(F)(F)F)c1 [Alpelisib] (partner 2 µM)
# Procedure, shortened: as §1
# BX 795 + AZD7762 = compound: O=C(NCCCNc1nc(Nc2cccc(NC(=O)N3CCCC3)c2)ncc1I)c1cccs1 [BX 795] + NC(=O)Nc1cc(-c2cccc(F)c2)sc1C(=O)N[C@H]1CCCNC1 [AZD7762] (partner 0.2 µM)
# Procedure, shortened: as §1
# BX 795 + Olaparib = compound: O=C(NCCCNc1nc(Nc2cccc(NC(=O)N3CCCC3)c2)ncc1I)c1cccs1 [BX 795] + O=C(c1cc(Cc2n[nH]c(=O)c3ccccc23)ccc1F)N1CCN(C(=O)C2CC2)CC1 [Olaparib] (partner 8 µM)
# Procedure, shortened: as §1
# BX 795 + Trametinib = compound: O=C(NCCCNc1nc(Nc2cccc(NC(=O)N3CCCC3)c2)ncc1I)c1cccs1 [BX 795] + CC(=O)Nc1cccc(-n2c(=O)n(C3CC3)c(=O)c3c(Nc4ccc(I)cc4F)n(C)c(=O)c(C)c32)c1 [Trametinib] (partner 0.02 µM)
# Procedure, shortened: as §1
# BX 795 + Palbociclib = compound: O=C(NCCCNc1nc(Nc2cccc(NC(=O)N3CCCC3)c2)ncc1I)c1cccs1 [BX 795] + CC(=O)c1c(C)c2cnc(Nc3ccc(N4CCNCC4)cn3)nc2n(C2CCCC2)c1=O [Palbociclib] (partner 0.5 µM)
# Procedure, shortened: as §1
# BX 795 + Luminespib = compound: O=C(NCCCNc1nc(Nc2cccc(NC(=O)N3CCCC3)c2)ncc1I)c1cccs1 [BX 795] + CCNC(=O)c1noc(-c2cc(C(C)C)c(O)cc2O)c1-c1ccc(CN2CCOCC2)cc1 [Luminespib] (partner 0.01 µM)
# Procedure, shortened: as §1
# BX 795 + OSI-027 = compound: O=C(NCCCNc1nc(Nc2cccc(NC(=O)N3CCCC3)c2)ncc1I)c1cccs1 [BX 795] + COc1cccc2cc(-c3nc([C@H]4CC[C@H](C(=O)O)CC4)n4ncnc(N)c34)[nH]c12 [OSI-027] (partner 0.5 µM)
# Procedure, shortened: as §1
# BX 795 + Tozasertib = compound: O=C(NCCCNc1nc(Nc2cccc(NC(=O)N3CCCC3)c2)ncc1I)c1cccs1 [BX 795] + Cc1cc(Nc2cc(N3CCN(C)CC3)nc(Sc3ccc(NC(=O)C4CC4)cc3)n2)n[nH]1 [Tozasertib] (partner 0.1 µM)
# Procedure, shortened: as §1
# BX 795 + Dasatinib = compound: O=C(NCCCNc1nc(Nc2cccc(NC(=O)N3CCCC3)c2)ncc1I)c1cccs1 [BX 795] + Cc1nc(Nc2ncc(C(=O)Nc3c(C)cccc3Cl)s2)cc(N2CCN(CCO)CC2)n1 [Dasatinib] (partner 0.075 µM)
# Procedure, shortened: as §1
# BX 795 + Phenformin = compound: O=C(NCCCNc1nc(Nc2cccc(NC(=O)N3CCCC3)c2)ncc1I)c1cccs1 [BX 795] + N=C(N)NC(=N)NCCc1ccccc1 [Phenformin] (partner 250 µM)
# Procedure, shortened: as §1
# BX 795 + Pemetrexed = compound: O=C(NCCCNc1nc(Nc2cccc(NC(=O)N3CCCC3)c2)ncc1I)c1cccs1 [BX 795] + Nc1nc2[nH]cc(CCc3ccc(C(=O)N[C@@H](CCC(=O)O)C(=O)O)cc3)c2c(=O)[nH]1 [Pemetrexed] (partner 0.2 µM)
# Procedure, shortened: as §1
# BX 795 + Decitabine = compound: O=C(NCCCNc1nc(Nc2cccc(NC(=O)N3CCCC3)c2)ncc1I)c1cccs1 [BX 795] + Nc1ncn([C@H]2C[C@H](O)[C@@H](CO)O2)c(=O)n1 [Decitabine] (partner 2 µM)
# Procedure, shortened: as §1
# BX 795 + Vorinostat = compound: O=C(NCCCNc1nc(Nc2cccc(NC(=O)N3CCCC3)c2)ncc1I)c1cccs1 [BX 795] + O=C(CCCCCCC(=O)Nc1ccccc1)NO [Vorinostat] (partner 1 µM)
# Procedure, shortened: as §1
cell line,measurement,setting,value
NCI-H1703,relative viability,BX 795; 0.04 µM,0.469
same,relative viability,BX 795; 0.1265 µM,0.806
same,relative viability,BX 795; 0.4 µM,0.236
same,relative viability,BX 795; 1.265 µM,0.298
same,relative viability,BX 795 + Bortezomib; first compound 0.04 µM,0.272
same,relative viability,BX 795 + Bortezomib; first compound 0.1265 µM,0.223
same,relative viability,BX 795 + Bortezomib; first compound 0.4 µM,0.167
same,relative viability,BX 795 + Bortezomib; first compound 1.265 µM,0.159
same,relative viability,BX 795 + Navitoclax; first compound 0.04 µM,0.8
same,relative viability,BX 795 + Navitoclax; first compound 0.1265 µM,1
same,relative viability,BX 795 + Navitoclax; first compound 0.4 µM,0.22
same,relative viability,BX 795 + Navitoclax; first compound 1.265 µM,0.289
same,relative viability,BX 795 + Foretinib; first compound 0.1265 µM,0.296
same,relative viability,BX 795 + Foretinib; first compound 0.4 µM,0.274
same,relative viability,BX 795 + Foretinib; first compound 1.265 µM,0.27
same,relative viability,BX 795 + Lapatinib; first compound 0.04 µM,0.729
same,relative viability,BX 795 + Lapatinib; first compound 0.1265 µM,1.11
same,relative viability,BX 795 + Lapatinib; first compound 0.4 µM,0.284
same,relative viability,BX 795 + Lapatinib; first compound 1.265 µM,0.243
same,relative viability,BX 795 + Pictilisib; first compound 0.1265 µM,0.201
same,relative viability,BX 795 + Pictilisib; first compound 0.4 µM,0.222
same,relative viability,BX 795 + Pictilisib; first compound 1.265 µM,0.185
same,relative viability,BX 795 + Crizotinib; first compound 0.04 µM,0.317
same,relative viability,BX 795 + Crizotinib; first compound 0.1265 µM,0.453
same,relative viability,BX 795 + Crizotinib; first compound 0.4 µM,0.148
same,relative viability,BX 795 + Crizotinib; first compound 1.265 µM,0.179
same,relative viability,BX 795 + Linsitinib; first compound 0.1265 µM,0.622
same,relative viability,BX 795 + Linsitinib; first compound 0.4 µM,0.185
same,relative viability,BX 795 + Linsitinib; first compound 1.265 µM,0.224
same,relative viability,BX 795 + Alpelisib; first compound 0.04 µM,0.211
same,relative viability,BX 795 + Alpelisib; first compound 0.1265 µM,0.286
same,relative viability,BX 795 + Alpelisib; first compound 0.4 µM,0.194
same,relative viability,BX 795 + Alpelisib; first compound 1.265 µM,0.204
same,relative viability,BX 795 + AZD7762; first compound 0.04 µM,0.138
same,relative viability,BX 795 + AZD7762; first compound 0.1265 µM,0.115
same,relative viability,BX 795 + AZD7762; first compound 0.4 µM,0.148
same,relative viability,BX 795 + AZD7762; first compound 1.265 µM,0.156
same,relative viability,BX 795 + Olaparib; first compound 0.1265 µM,0.283
same,relative viability,BX 795 + Olaparib; first compound 0.4 µM,0.229
same,relative viability,BX 795 + Olaparib; first compound 1.265 µM,0.152
SW 900,relative viability,BX 795; 0.04 µM,0.856
same,relative viability,BX 795; 0.1265 µM,0.759
same,relative viability,BX 795; 0.4 µM,1.04
same,relative viability,BX 795; 1.265 µM,0.813
same,relative viability,BX 795 + Trametinib; first compound 0.04 µM,0.819
same,relative viability,BX 795 + Trametinib; first compound 0.4 µM,0.99
same,relative viability,BX 795 + Trametinib; first compound 1.265 µM,0.706
same,relative viability,BX 795 + Palbociclib; first compound 0.04 µM,0.512
same,relative viability,BX 795 + Palbociclib; first compound 0.4 µM,0.67
same,relative viability,BX 795 + Palbociclib; first compound 1.265 µM,0.593
same,relative viability,BX 795 + Luminespib; first compound 0.04 µM,0.17
same,relative viability,BX 795 + Luminespib; first compound 0.1265 µM,0.157
same,relative viability,BX 795 + Luminespib; first compound 0.4 µM,0.19
same,relative viability,BX 795 + Luminespib; first compound 1.265 µM,0.169
same,relative viability,BX 795 + Foretinib; first compound 0.04 µM,0.938
same,relative viability,BX 795 + Foretinib; first compound 0.1265 µM,1.04
same,relative viability,BX 795 + Foretinib; first compound 0.4 µM,0.968
same,relative viability,BX 795 + Foretinib; first compound 1.265 µM,0.569
same,relative viability,BX 795 + OSI-027; first compound 0.04 µM,0.679
same,relative viability,BX 795 + OSI-027; first compound 0.1265 µM,0.521
same,relative viability,BX 795 + OSI-027; first compound 0.4 µM,0.487
same,relative viability,BX 795 + OSI-027; first compound 1.265 µM,0.423
same,relative viability,BX 795 + Tozasertib; first compound 0.04 µM,0.571
same,relative viability,BX 795 + Tozasertib; first compound 0.1265 µM,0.549
same,relative viability,BX 795 + Tozasertib; first compound 0.4 µM,0.657
same,relative viability,BX 795 + Tozasertib; first compound 1.265 µM,0.233
same,relative viability,BX 795 + Dasatinib; first compound 0.04 µM,0.737
same,relative viability,BX 795 + Dasatinib; first compound 0.1265 µM,0.541
same,relative viability,BX 795 + Dasatinib; first compound 0.4 µM,0.414
same,relative viability,BX 795 + Dasatinib; first compound 1.265 µM,0.259
same,relative viability,BX 795 + Phenformin; first compound 0.04 µM,0.478
same,relative viability,BX 795 + Phenformin; first compound 0.1265 µM,0.627
same,relative viability,BX 795 + Phenformin; first compound 0.4 µM,0.613
same,relative viability,BX 795 + Phenformin; first compound 1.265 µM,0.693
same,relative viability,BX 795 + AZD7762; first compound 0.04 µM,0.55
same,relative viability,BX 795 + AZD7762; first compound 0.4 µM,0.619
same,relative viability,BX 795 + AZD7762; first compound 1.265 µM,0.633
same,relative viability,BX 795 + Pemetrexed; first compound 0.04 µM,0.488
same,relative viability,BX 795 + Pemetrexed; first compound 0.4 µM,0.469
same,relative viability,BX 795 + Pemetrexed; first compound 1.265 µM,0.455
same,relative viability,BX 795 + Decitabine; first compound 0.04 µM,0.543
same,relative viability,BX 795 + Decitabine; first compound 0.4 µM,0.622
same,relative viability,BX 795 + Decitabine; first compound 1.265 µM,0.485
same,relative viability,BX 795 + Vorinostat; first compound 0.04 µM,0.482
same,relative viability,BX 795 + Vorinostat; first compound 0.4 µM,0.611
same,relative viability,BX 795 + Vorinostat; first compound 1.265 µM,0.604
same,relative viability,BX 795 + Olaparib; first compound 0.04 µM,0.755
same,relative viability,BX 795 + Olaparib; first compound 0.4 µM,1.25
same,relative viability,BX 795 + Olaparib; first compound 1.265 µM,0.775
